Reference: patent US20220095663A1, “COMPLEX MUSHROOM MYCELIUM COMPOSITION HAVING LIVER FUNCTION-IMPROVING ACTIVITY AND PREPARATION METHOD THEREFOR” (GIUNCHAN CO., LTD., priority 2019, published 2022)

Assay: Antioxidation activity by DPPH method
Conditions: 50 μg/ml, positive control
Protocol: 7) Antioxidation activity measurement test: The antioxidation activity of each sample was measured by a DPPH method using 1.1-diphenyl-2-picrylhydrazyl. The positive control group was treated with BHT at a concentration of 50 μg/ml.

Cc1cc(C(C)(C)C)c(O)c(C(C)(C)C)c1 [BHT] gave a DPPH inhibition of 10%.
